Laboratory results reported in PMC12263422, “Cryo-EM structure of the human THIK-1 K2P K^+ channel reveals a lower Y gate regulated by lipids and anesthetics” (Nature Structural & Molecular Biology, 2025).
Residue numbers refer to the chain shown, from its start. “And” between values parts separate entries of the source, which are not always exact repeats. Equal values may be shown once.

Assays:
Assay type in all cases: cell-based
THIK-1 F262A = target: T1, THIK-1 F262A (Homo sapiens, UniProt Q9HB14, F262A); experiment: Inside-out excised patch recordings, oocytes, THIK-1 F262A mutant (lipid activation); details: THIK-1 F262A
T1 construct: expressed in transfected cells; host or cells: Xenopus oocytes (mRNA injection)
T1 sequence (Q9HB14 1-408 F262A): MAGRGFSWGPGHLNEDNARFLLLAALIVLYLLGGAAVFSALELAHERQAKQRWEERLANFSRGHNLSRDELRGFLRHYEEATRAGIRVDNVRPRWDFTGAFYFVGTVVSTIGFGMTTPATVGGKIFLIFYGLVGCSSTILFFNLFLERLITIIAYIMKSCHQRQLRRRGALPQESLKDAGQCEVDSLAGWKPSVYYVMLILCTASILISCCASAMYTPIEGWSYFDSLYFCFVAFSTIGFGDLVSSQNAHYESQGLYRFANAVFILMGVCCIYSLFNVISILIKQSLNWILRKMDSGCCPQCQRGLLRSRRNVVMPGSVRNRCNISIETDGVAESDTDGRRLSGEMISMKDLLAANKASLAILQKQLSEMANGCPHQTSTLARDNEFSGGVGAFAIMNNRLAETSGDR
Excerpt: (§1) Human K2P13.1 THIK-1 (GenBank accession number: NM_022054) and human K2P12.1 THIK-2 (NM_022055.1) were used in this study. For functional expression studies, the respective K^+ channel subtype coding sequences were subcloned into the oocyte expression vector pSGEM or the dual-purpose expression vector pFAW[41] and verified by sequencing. All mutant channels were obtained by site-directed mutagenesis and verified by sequencing. To increase surface expression and macroscopic currents, measurements of THIK-2 channels used a mutated ER retention motif, (R11A R12A R14A R15A R16A; THIK-2*)[20]. Vector DNA was linearized with NheI or MluI, and mRNA was synthesized in vitro using the SP6 or T7 AmpliCap Max High Yield Message Maker Kit (Cellscript, USA) or HiScribe T7 ARCA mRNA Kit (New England Biolabs).
(§2) Two-electrode voltage–clamp (TEVC) studies were performed in Xenopus oocytes. All animal use conformed to the Guide for the Care and Use of Laboratory Animals (NIH Publication 85–23), and all experiments using Xenopus toads were approved by the local ethics panels. Oocytes were stored at 17 °C in ND96 recording solution composed of (in mM): 96 NaCl, 2 KCl, 1.8 CaCl2, 1 MgCl2, 5 HEPES (pH 7.5 adjusted with NaOH and HCl), supplemented with Na-pyruvate (275 mg L^–1), theophylline (90 mg L^–1) and gentamicin (50 mg L^–1). Oocytes were injected with 1 ng mRNA for WT or mutant channels, and were incubated for 24–48 h at 17 °C. Two-electrode voltage clamp recordings were then performed as previously described[42],[43]. For macroscopic patch–clamp measurements, oocytes were obtained as described above incubated at 17 °C in a solution containing (mM): 54 NaCl, 30 KCl, 2.4 NaHCO3, 0.82 MgSO4 ×7 H2O, 0.41 CaCl2, 0.33 Ca(NO3)2 ×4 H2O and 7.5 TRIS (pH 7.4 adjusted with NaOH and HCl) for 1–4 days before use. Excised patch recordings in inside-out configuration conditions were performed at room temperature. Patch pipettes were made from thick-walled borosilicate glass GB 200TF-8P (Science Products), had resistances of 0.2–0.5 MΩ (tip diameter, 10–25 µm) and filled with a pipette solution (in mM): 120 KCl, 10 HEPES and 3.6 CaCl2 (pH 7.4 adjusted with KOH and HCl). Intracellular bath solutions and compounds were applied to the cytoplasmic side of excised patches for the various K^+ channels through a gravity flow multi-barrel pipette system. The intracellular solution had the following composition (in mM): 120 KCl, 10 HEPES, 2 EGTA and 1 pyrophosphate (pH adjusted with KOH and HCl). Currents were recorded with an EPC10 amplifier (HEKA Electronics) and sampled at 10 kHz or higher, with filtering set to 3 kHz (–3 dB) or higher, as appropriate for sampling rate. For measurements of GPCR activation, whole-cell currents were recorded for THIK-1 in transiently transfected HEK-293 cells. Cells were stimulated by a ramp protocol between −100 and +60 mV (holding potential, −80 mV). The pipette solution was composed of (in mM): 140 KCl, 2 MgCl2, 1 CaCl2, 2.5 EGTA and 10 HEPES (pH 7.3 adjusted with KOH and HCl). The extracellular bath solution had the following composition (in mM): 135 NaCl, 5 KCl, 2 MgCl2, 2 CaCl2, 10 glucose and 10 HEPES pH (pH 7.3 adjusted with NaOH and HCl). Oxotremorine M (Oxo-M) was added to extracellular bath solution to obtain the final concentration. Single-channel currents were recorded with an Axopatch 200B amplifier through a Digidata 1440A digitizer (Molecular Devices). Data were filtered at 2 kHz and recorded at a 200-kHz sampling rate with the program Clampex (Molecular Devices). Pipette solution and bath solution for cell-attached recordings contained (in mM): 140 KCl, 2 MgCl2, 1 CaCl2 and 10 HEPES (pH 7.4 adjusted with KOH and HCl). For inside-out recordings, the bath solution contained (in mM): 140 KCl, 2 MgCl2, 1 CaCl2 and 10 HEPES (pH 7.2 adjusted with KOH and HCl). All experiments were conducted at room temperature. […]

THIK-1 R92A = target: T2, THIK-1 R92A (Homo sapiens, UniProt Q9HB14, R92A); experiment: Inside-out excised patch recordings, oocytes, THIK-1 R92A mutant (lipid activation); details: THIK-1 R92A
T2 construct: expressed in transfected cells; host or cells: Xenopus oocytes (mRNA injection)
T2 sequence (Q9HB14 1-408 R92A): T1 sequence (Q9HB14 1-408 F262A) with R92A, A262F
Excerpt: as §1, §2

[1] = target: T3, Human K2P13.1 THIK-1 (WT) (Homo sapiens, UniProt Q9HB14); experiment: Macroscopic inside-out excised patch recordings from Xenopus oocytes expressing WT THIK-1; compounds applied to the intracellular side; details: for extent of activation by oleoyl-CoA: 5 µM oleoyl-CoA; for Fold activation: 5.0 µM oleoyl-CoA
T3 construct: expressed in transfected cells; host or cells: Xenopus oocytes (mRNA injection)
T3 sequence (Q9HB14 1-408): T1 sequence (Q9HB14 1-408 F262A) with A262F
Excerpt: as §1, §2

CCCCCCCC/C=C\CCCCCCCC(=O)SCCNC(=O)CCNC(=O)[C@H](O)C(C)(C)COP(=O)(O)OP(=O)(O)OC[C@H]1O[C@@H](n2cnc3c(N)ncnc32)[C@H](O)[C@@H]1OP(=O)(O)O [oleoyl-CoA]
Fold activation with 5.0 µM oleoyl-CoA (THIK-1 F262A; individual recordings): 16.700 and 14.500 and 16.910 and 15.530 and 18.460 and 22.210
Fold activation with 5.0 µM oleoyl-CoA (THIK-1 F262A; mean): 17.39
Fold activation with 5.0 µM oleoyl-CoA (THIK-1 R92A; individual recordings): 19.660 and 15.940 and 13.100 and 29.730 and 21.570 and 18.010
Fold activation with 5.0 µM oleoyl-CoA (THIK-1 R92A; mean): 19.67
extent of activation by oleoyl-CoA ([1]; WT): 14 ± 1 fold
extent of activation by oleoyl-CoA ([1]; WT preinhibited with halothane (15.2 mM)): 8 ± 2 fold
Fold activation ([1]; WT, Halothane pre-inhibited (15.2 mM halothane), individual recordings): 8.238 and 0.783 and 13.259 and 5.975 and 16.259 and 6.147 and 12.474 and 4.311
Fold activation ([1]; WT, Halothane pre-inhibited (15.2 mM halothane), mean): 8.43
Fold activation ([1]; WT, absence of halothane, mean): 13.60
Fold activation with 5.0 µM oleoyl-CoA ([1]; THIK-1 WT, mean): 13.60
